Consider 20 compounds from patent US20230159445A1, “STAT INHIBITORY COMPOUNDS AND COMPOSITIONS” (JANPIX LIMITED, priority 2020, published 2023).

In one data set the test system is glutathione (GSH). The data set can be described thus: Reactivity Profiling with Glutathione (GSH), half-life by HPLC. As to conditions: 5 mM glutathione (GSH) in IMDM with 10% FBS.
Another data set concerns MV4-11 cells. The data set can be described thus: MV4-11 Cell Cytotoxicity Assay (CellTiter-Blue, 72 h). As to conditions: Homo sapiens, MV4-11; MV-4-11 cells. It counts as cell-based, human. Put shortly: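 Viability read-out: CellTiter-Blue, 1 h, fluorescence 560/590 nm. Preceded by 72 h exposure (37° C, 5% CO2) to twofold dilution series from 50 μM, triplicate, 0.5% DMSO vehicle, applied 24 h after plating.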
A general note: Alamar Blue is a resazurin reagent that responds to reducing activity.

Turning to `COc1cc(C(=O)O)ccc1N(Cc1cc(C2CC2)cc(C(C)(C)C)c1)C(=O)CN(Cc1c(F)c(F)cc(F)c1F)S(=O)(=O)c1c(F)c(F)c(F)c(F)c1F` [Compound 1082, 4-(N-(3-(tert-butyl)-5-cyclopropylbenzyl)-2-(N-(2,3,5,6-tetrafluorobenzyl)-(2,3,4,5,6-pentafluoro-phenyl)sulfonamido)acetamido)-3-methoxybenzoic acid], the half-life (in general, the time needed for the level to fall by half in the phase considered) at 25 μM in the data set with glutathione (GSH) fell in the range of 2.37 to 4.12 h. In the data set on MV4-11 cells, the IC50 (as a rule, the concentration that inhibits the measured activity by half) was in the range of 0.01 to 316 nM.

On to `COc1cc(C(=O)O)ccc1N(Cc1cc(C2CC2)cc(C(C)(C)C)c1)C(=O)CN(Cc1ccc(F)c(F)c1F)S(=O)(=O)c1c(F)c(F)c(F)c(F)c1F` [Compound 1083, 4-(N-(3-(tert-butyl)-5-cyclopropylbenzyl)-2-(N-(2,3,4-trifluorobenzyl)-(2,3,4,5,6-pentafluoro-phenyl)sulfonamido)acetamido)-3-methoxybenzoic acid], for which the half-life at 25 μM with glutathione (GSH) was 4.12 to 9.23 h. Besides, the IC50 in the data set with MV4-11 cells is 0.01 to 316 nM.

In turn, `COc1cc(C(=O)O)ccc1N(Cc1cc(C2CC2)cc(C(C)(C)C)c1)C(=O)CN(Cc1ncccc1F)S(=O)(=O)c1c(F)c(F)c(F)c(F)c1F` [Compound 1084, 4-(N-(3-(tert-butyl)-5-cyclopropylbenzyl)-2-(N-((3-fluoropyridin-2-yl)methyl)-(2,3,4,5,6-pentafluoro-phenyl)sulfonamido)acetamido)-3-methoxybenzoic acid] gave a half-life at 25 μM in the data set on glutathione (GSH) of 0.00167 to 2.37 h. Besides, in the data set on MV4-11 cells, the IC50 lay within 316 to 1000 nM.

In turn, `COc1cc(C(=O)O)ccc1N(Cc1cc(C2CC2)cc(C(C)(C)C)c1)C(=O)CN(Cc1ccc(F)cn1)S(=O)(=O)c1c(F)c(F)c(F)c(F)c1F` [Compound 1085, 4-(N-(3-(tert-butyl)-5-cyclopropylbenzyl)-2-(N-((5-fluoropyridin-2-yl)methyl)-(2,3,4,5,6-pentafluoro-phenyl)sulfonamido)acetamido)-3-methoxybenzoic acid] showed a half-life at 25 μM with glutathione (GSH) of 0.00167 to 2.37 h. The compound also displayed an IC50 with MV4-11 cells of 316 to 1000 nM.

Turning to `CC(c1cc(CN(C(=O)CN(Cc2ccccc2F)S(=O)(=O)c2c(F)c(F)c(F)c(F)c2F)c2ccc(C(=O)O)c(O)c2)cc(C2CC2)c1)C(F)(F)F` (stereo not shown) [Compound 1086, 4-(N-(3-cyclopropyl-5-(1,1,1-trifluoropropan-2-yl)benzyl)-2-(N-(2-fluorobenzyl)-(2,3,4,5,6-pentafluoro-phenyl)sulfonamido)acetamido)-2-hydroxybenzoic acid], the half-life at 25 μM in the data set on glutathione (GSH) was in the range of 2.37 to 4.12 h. In the data set with MV4-11 cells, this compound yielded an IC50 of 1000 to 3160 nM.

On to `Cc1cc(C(=O)O)ccc1N(Cc1cc(C2CC2)cc(C(C)(C)C)c1)C(=O)CN(Cc1ccccc1F)S(=O)(=O)c1c(F)c(F)c(F)c(F)c1F` [Compound 1088, 4-(N-(3-(tert-butyl)-5-cyclopropylbenzyl)-2-(N-(2-fluorobenzyl)-(2,3,4,5,6-pentafluoro-phenyl)sulfonamido)acetamido)-3-methylbenzoic acid], for which the half-life at 25 μM in the data set on glutathione (GSH) lay in the range of 2.37 to 4.12 h. In the data set on MV4-11 cells, this compound showed an IC50 of 0.01 to 316 nM.

In the data set with glutathione (GSH), `Cc1cc(C(=O)O)ccc1N(Cc1cc(C2CC2)cc(C(C)(C)C)c1)C(=O)CN(Cc1ccccc1C(F)(F)F)S(=O)(=O)c1c(F)c(F)c(F)c(F)c1F` [Compound 1089, 4-(N-(3-(tert-butyl)-5-cyclopropylbenzyl)-2-(N-(2-(trifluoromethyl)benzyl)-(2,3,4,5,6-pentafluoro-phenyl)sulfonamido)acetamido)-3-methylbenzoic acid] displayed a half-life at 25 μM of 9.23 to 1670 h. The compound also came in with an IC50 in the data set on MV4-11 cells of 316 to 1000 nM.

Consider `Cc1cc(C(=O)O)ccc1N(Cc1cc(C2CC2)cc(C(C)(C)C)c1)C(=O)CN(Cc1ccccc1C#N)S(=O)(=O)c1c(F)c(F)c(F)c(F)c1F` [Compound 1090, 4-(N-(3-(tert-butyl)-5-cyclopropylbenzyl)-2-(N-(2-cyanobenzyl)-(2,3,4,5,6-pentafluorophenyl)sulfon-amido)acetamido)-3-methylbenzoic acid], for which the half-life at 25 μM in the data set on glutathione (GSH) is 2.37 to 4.12 h. This compound gave an IC50 with MV4-11 cells of 316 to 1000 nM.

Turning to `CC(C)(C)c1cc(CN(C(=O)CN(Cc2ccccc2F)S(=O)(=O)c2c(F)c(F)c(F)c(F)c2F)c2ccc(C(=O)O)cc2OC2CC(F)(F)C2)cc(C2CC2)c1` [Compound 1093, 4-(N-(3-(tert-butyl)-5-cyclopropylbenzyl)-2-(N-(2-fluorobenzyl)-(2,3,4,5,6-pentafluoro-phenyl)sulfonamido)acetamido)-3-(3,3-difluorocyclobutoxy) benzoic acid], the half-life at 25 μM with glutathione (GSH) fell in the range of 9.23 to 1670 h. In the data set on MV4-11 cells, this compound showed an IC50 of 316 to 1000 nM.

`COc1cc(C(=O)O)ccc1N(Cc1cc(C2CC2)cc(C(C)(C)C)c1)C(=O)CN(Cc1ccc(F)nc1F)S(=O)(=O)c1c(F)c(F)c(F)c(F)c1F` [Compound 1095, 4-(N-(3-(tert-butyl)-5-cyclopropylbenzyl)-2-(N-((2,6-difluoropyridin-3-yl)methyl)-(2,3,4,5,6-pentafluorophenyl)sulfon-amido)acetamido)-3-methoxybenzoic acid]: the half-life at 25 μM in the data set on glutathione (GSH) was 0.00167 to 2.37 h. Moreover, in the data set on MV4-11 cells, the IC50 fell in the range of 0.01 to 316 nM.

With `COc1cc(C(=O)O)ccc1N(Cc1cc(C2CC2)cc(C(C)(C)C)c1)C(=O)CN(Cc1cccnc1C(F)(F)F)S(=O)(=O)c1c(F)c(F)c(F)c(F)c1F` [Compound 1097, 4-(N-(3-(tert-butyl)-5-cyclopropylbenzyl)-2-(N-((2-(trifluoromethyl)pyridin-3-yl)methyl)-(2,3,4,5,6-pentafluoro-phenyl)sulfonamido)acetamido)-3-methoxybenzoic acid], the half-life at 25 μM with glutathione (GSH) lay in the range of 4.12 to 9.23 h. Besides, in the data set on MV4-11 cells, the IC50 was in the range of 316 to 1000 nM.

Regarding `O=C(O)c1ccc(N(Cc2cc(C3CC3)cc(C3CC3)c2)C(=O)CN(Cc2ccccc2F)S(=O)(=O)c2c(F)c(F)c(F)c(F)c2F)c(OC2CC2)c1` [Compound 1099, 3-cyclopropoxy-4-(N-(3,5-dicyclopropylbenzyl)-2-(N-(2-fluorobenzyl)-(2,3,4,5,6-pentafluoro-phenyl)sulfonamido)acetamido)benzoic acid], in the data set on glutathione (GSH), the half-life at 25 μM was in the range of 4.12 to 9.23 h. Besides, in the data set on MV4-11 cells, the IC50 lay in the range of 0.01 to 316 nM.

For the compound `CC(C)(C)c1cc(CN(C(=O)CN(C2CC2)S(=O)(=O)c2c(F)c(F)c(F)c(F)c2F)c2ccc(C(=O)O)cc2OC2CC2)cc(C2CC2)c1` [Compound 1100, 4-(N-(3-(tert-butyl)-5-cyclopropylbenzyl)-2-(N-cyclopropyl-(2,3,4,5,6-pentafluorophenyl)sulfon-amido)acetamido)-3-cyclopropoxybenzoic acid], in the data set on glutathione (GSH), the half-life at 25 μM fell in the range of 0.00167 to 2.37 h. Further, the IC50 in the data set with MV4-11 cells was in the range of 316 to 1000 nM.

Compound `CN(C)c1cc(C(=O)O)ccc1N(Cc1cc(C2CC2)cc(C(C)(C)C)c1)C(=O)CN(Cc1ccccc1F)S(=O)(=O)c1c(F)c(F)c(F)c(F)c1F` [Compound 1105, 4-(N-(3-(tert-butyl)-5-cyclopropylbenzyl)-2-(N-(2-fluorobenzyl)-(2,3,4,5,6-pentafluoro-phenyl)sulfonamido)acetamido)-3-(dimethylamino)benzoic acid] yielded a half-life at 25 μM in the data set on glutathione (GSH) of 4.12 to 9.23 h. Also, the IC50 in the data set with MV4-11 cells lay within 0.01 to 316 nM.

In the data set with glutathione (GSH), `CC(C)(C)c1cc(CN(C(=O)CN(Cc2ccccc2F)S(=O)(=O)c2c(F)c(F)c(F)c(F)c2F)c2cc(C(=O)O)ccc2OC2CC2)cc(C2CC2)c1` [Compound 1110, 3-(N-(3-(tert-butyl)-5-cyclopropylbenzyl)-2-(N-(2-fluorobenzyl)-(2,3,4,5,6-pentafluoro-phenyl)sulfonamido)acetamido)-4-cyclopropoxybenzoic acid] yielded a half-life at 25 μM of 2.37 to 4.12 h. The compound further showed an IC50 with MV4-11 cells of 316 to 1000 nM.

`CC(C)(C)c1cc(CN(C(=O)CN(Cc2ncccc2C(F)(F)F)S(=O)(=O)c2c(F)c(F)c(F)c(F)c2F)c2ccc(C(=O)O)cc2C2CC2)cc(C2CC2)c1` [Compound 1115, 4-(N-(3-(tert-butyl)-5-cyclopropylbenzyl)-2-(N-((3-(trifluoromethyl)pyridin-2-yl)methyl)-(2,3,4,5,6-pentafluoro-phenyl)sulfonamido)acetamido)-3-cyclopropylbenzoic acid] displayed a half-life at 25 μM with glutathione (GSH) of 4.12 to 9.23 h. In the data set on MV4-11 cells, this compound showed an IC50 of 0.01 to 316 nM.

Turning to `COc1cc(C(=O)O)ccc1N(Cc1cc(C2CC2)cc(C(C)(C)C)c1)C(=O)CN(Cc1ccc(C(F)(F)F)cn1)S(=O)(=O)c1c(F)c(F)c(F)c(F)c1F` [Compound 1117, 4-(N-(3-(tert-butyl)-5-cyclopropylbenzyl)-2-(N-((5-(trifluoromethyl)pyridin-2-yl)methyl)-(2,3,4,5,6-pentafluoro-phenyl)sulfonamido)acetamido)-3-methoxybenzoic acid], the half-life at 25 μM in the data set with glutathione (GSH) was in the range of 2.37 to 4.12 h. The compound also had an IC50 in the data set on MV4-11 cells of 316 to 1000 nM.

In the data set with glutathione (GSH), `COc1cc(C(=O)O)ccc1N(Cc1cc(C2CC2)cc(C(C)(C)C)c1)C(=O)CN(Cc1cccc(C(F)(F)F)n1)S(=O)(=O)c1c(F)c(F)c(F)c(F)c1F` [Compound 1118, 4-(N-(3-(tert-butyl)-5-cyclopropylbenzyl)-2-(N-((6-(trifluoromethyl)pyridin-2-yl)methyl)-(2,3,4,5,6-pentafluoro-phenyl)sulfonamido)acetamido)-3-methoxybenzoic acid] came in with a half-life at 25 μM of 0.00167 to 2.37 h. Also, the IC50 in the data set with MV4-11 cells is 316 to 1000 nM.

In the data set on glutathione (GSH), `CN(C)c1cc(C(=O)O)c(F)cc1N(Cc1cc(C2CC2)cc(C(C)(C)C)c1)C(=O)CN(Cc1c(F)cc(F)cc1F)S(=O)(=O)c1c(F)c(F)c(F)c(F)c1F` [Compound 1124, 4-(N-(3-(tert-butyl)-5-cyclopropylbenzyl)-2-(N-(2,4,6-trifluorobenzyl)-(2,3,4,5,6-pentafluoro-phenyl)sulfonamido)acetamido)-5-(dimethylamino)-2-fluorobenzoic acid] returned a half-life at 25 μM of 4.12 to 9.23 h. Moreover, the IC50 in the data set on MV4-11 cells is 0.01 to 316 nM.

For the compound `O=C(O)c1ccc(N(Cc2ccccc2)C(=O)CN(Cc2ccccc2C(F)(F)F)S(=O)(=O)c2c(F)c(F)c(F)c(F)c2F)c(OC2CC2)c1` [Compound 1126, 4-(N-benzyl-2-(N-(2-(trifluoromethyl)benzyl)-(2,3,4,5,6-pentafluoro-phenyl)sulfonamido)acetamido)-3-cyclopropoxybenzoic acid], the half-life at 25 μM with glutathione (GSH) fell in the range of 0.00167 to 2.37 h. In addition, the IC50 in the data set on MV4-11 cells lay within 1000 to 3160 nM.
